The subject of test [1] is Phospho-ERK in NCI-H358 cells expressing KRas G12C. Nature of the test: Cellular inhibition of KRas G12C by Phospho-ERK measurement in NCI-H358 cells. The test is classed as cell-based. The conditions noted are these: Homo sapiens, read-out: IC50 (pERK(Thr202/Tyr204) normalized with GAPDH). Put shortly:
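After 8–12 h attachment, NCI-H358 cells were treated with compounds for 3 h (0.5% DMSO final), fixed, methanol-permeabilized and immunostained. pERK(Thr202/Tyr204) was read by infrared imaging and normalized to GAPDH as percent of DMSO control. IC50 came from a 4-parameter fit.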

For test [2], the target named is KRas G12C (Homo sapiens, UniProt P01116, C118S/C51S/C80L/G12C). Put plainly: KRas G12C Modification Assay (LCMS detection of covalent adduct). The test is classed as binding. To be noted: 5 μM compound, 3 hours. The method, then: A 10 μL aliquot of each protein solution was then transferred to a 384 well microtiter plate. Initial compound stocks were generated at fifty times their desired final assay concentration in DMSO.
Exemplary compounds of Formula (I) were diluted 25-fold into K-Ras Assay Buffer to a final of two times their final concentration. A 10 μL aliquot of each diluted compound solution was then added to each of the protein solutions in the microtiter plate to initiate reaction. […] At each time point, the reactions were quenched with 20 μL of a 25 mM acetic acid solution. […] Once all reactions were quenched, the plates were heat sealed and the samples were injected into a LC/MS system for data acquisition.
Samples were injected in their liquid phase onto a C-3 reverse phase column to remove assay buffer and prepare the samples for mass spectrometer. The proteins were eluted from the column using an acetonitrile gradient and fed directly into the mass analyzer. Initial raw data analysis took place in Agilent MassHunter software immediately post data acquisition.
Raw data analysis of the intact protein was exclusively a deconvolution of the multiple charge states of each protein in solution using a maximum entropy deconvolution provided in Mass Hunter. To minimize complexity, only the data over limited mass ranges were considered for analysis, with a minimum of one Dalton mass step intervals. The heights of all masses identified during raw data analysis were exported to be further analyzed in Spotfire® data analysis software.
Final data analysis was a multistep process in the Spotfire® data analysis software package. Briefly, each protein mass was calculated as a percent of the total signal of that sample, that percentage was then normalized to the percentage of signal of the protein in the absence of reactive compounds. Those normalized signals were reported as normalized percent of control (POC). […] Key: “A”≤25% POC; “B”>25% POC≤50% POC; “C”>50% POC and ND=not determined.

Where [3] appears, read: NCI-H358 cells, 3 hours compound treatment.

The structures appear in SMILES notation. Where two headings read alike, the source gives them in different places.

`C=CC(=O)N1CCN(c2nc(OC[C@@H]3CCCN3C)nc3c2CCN(c2c(C)ccc4[nH]ncc24)C3)CC1` [Example 155, (S)-1-(4-(7-(5-methyl-1H-indazol-4-yl)-2-((1-methylpyrrolidin-2-yl)methoxy)-5,6,7,8-tetrahydropyrido[3,4-d]pyrimidin-4-yl)piperazin-1-yl)prop-2-en-1-one]: the IC50 in test [1] (setting [3]) was 1 to 1000 nM. Also, the “POC (normalized percent of control, KRas G12C modification)” value in test [2] is “C (“C”>50% POC)”.

`C=CC(=O)N1CCN(c2nc(OCCCN3CCOCC3)nc3c2CCN(c2c(C(F)(F)F)ccc4[nH]ncc24)C3)CC1` [Example 180, 1-[4-[2-(3-morpholinopropoxy)-7-[5-(trifluoromethyl)-1H-indazol-4-yl]-6,8-dihydro-5H-pyrido[3,4-d]pyrimidin-4-yl]piperazin-1-yl]prop-2-en-1-one]: in test [1] (setting [3]), the IC50 lay in the range of 1 to 1000 nM. The “POC (normalized percent of control, KRas G12C modification)” value in test [2] is listed as “C (“C”>50% POC)”.

`C=CC(=O)N1CCN(c2nc(OC[C@@H]3CCCN3C)nc3c2CCN(c2cccc4ccc(C)cc24)C3)CC1CC#N` (stereo partly drawn) [Example 245, 2-[4-[7-(7-methyl-1-naphthyl)-2-[[(2S)-1-methylpyrrolidin-2-yl]methoxy]-6,8-dihydro-5H-pyrido[3,4-d]pyrimidin-4-yl]-1-prop-2-enoyl-piperazin-2-yl]acetonitrile]: in test [1] (setting [3]), the IC50 was in the range of 1 to 1000 nM. Further, the “POC (normalized percent of control, KRas G12C modification)” value in test [2] was “C (“C”>50% POC)”.

Consider `C=CC(=O)N1CCN(c2nc(OC[C@@H]3C[C@@H](F)CN3C)nc3c2CCN(c2cccc4ccccc24)C3)CC1CC#N` (stereo partly drawn) [Example 220, 2-(1-acryloyl-4-(2-(((2S,4R)-4-fluoro-1-methylpyrrolidin-2-yl)methoxy)-7-(naphthalen-1-yl)-5,6,7,8-tetrahydropyrido[3,4-d]pyrimidin-4-yl)piperazin-2-yl)acetonitrile], for which the IC50 in test [1] (setting [3]) was in the range of 1 to 1000 nM. In test [2], the “POC (normalized percent of control, KRas G12C modification)” value is on record as “C (“C”>50% POC)”.

As to `C=CC(=O)N1CCN(c2nc(OC[C@@H]3CCCN3C)nc3c2CCN(c2cccc4ccccc24)C3)C[C@@H]1CC#N` [Example 234, 2-((S)-1-acryloyl-4-(2-(((S)-1-methylpyrrolidin-2-yl)methoxy)-7-(naphthalen-1-yl)-5,6,7,8-tetrahydropyrido[3,4-d]pyrimidin-4-yl)piperazin-2-yl)acetonitrile], in test [1] (NCI-H358, 3 h), the IC50 fell in the range of 1 to 1000 nM. For the same compound, in test [2], the “POC (normalized percent of control, KRas G12C modification)” value is listed as “C (“C”>50% POC)”.

As to `C=CC(=O)N1CCN(c2nc(OC[C@@H]3CCCN3C)nc3c2CCN(c2cccc4ccncc24)C3)CC1CC#N` (stereo partly drawn) [Example 244, 2-[4-[7-(8-isoquinolyl)-2-[[(2S)-1-methylpyrrolidin-2-yl]methoxy]-6,8-dihydro-5H-pyrido[3,4-d]pyrimidin-4-yl]-1-prop-2-enoyl-piperazin-2-yl]acetonitrile], in test [1] (setting [3]), the IC50 was in the range of 1 to 1000 nM. Also, the “POC (normalized percent of control, KRas G12C modification)” value in test [2] was “C (“C”>50% POC)”.

Turning to `C=CC(=O)N1CCN(c2nc(OC[C@@H]3CCCN3C)nc3c2CCN(c2c(F)c(O)cc4ccccc24)C3)CC1` [Example 249, 1-[4-[7-(2-fluoro-3-hydroxy-1-naphthyl)-2-[[(2S)-1-methylpyrrolidin-2-yl]methoxy]-6,8-dihydro-5H-pyrido[3,4-d]pyrimidin-4-yl]piperazin-1-yl]prop-2-en-1-one], the IC50 in test [1] (setting [3]) is 1 to 1000 nM. The “POC (normalized percent of control, KRas G12C modification)” value in test [2] is on record as “C (“C”>50% POC)”.

As to `C=CC(=O)N1CCN(c2nc(OC[C@@H]3CCCN3C)nc3c2CCN(c2c(C(F)(F)F)ccc4[nH]ncc24)C3)CC1CC#N` (stereo partly drawn) [Example 149, 2-[4-[2-[[(2S)-1-methylpyrrolidin-2-yl]methoxy]-7-[5-(trifluoromethyl)-1H-indazol-4-yl]-6,8-dihydro-5H-pyrido[3,4-d]pyrimidin-4-yl]-1-prop-2-enoyl-piperazin-2-yl]acetonitrile], the IC50 in test [1] (setting [3]) lay within 1 to 1000 nM. Moreover, the “POC (normalized percent of control, KRas G12C modification)” value in test [2] was “B (“B”>25% POC≤50% POC)”.

For the origin of these results see US11267812B2 (Mirati Therapeutics, Inc., priority 2016, dated 2022).
